Source: patent US6908935B2, “Calcium receptor modulating agents” (Amgen Inc., priority 2002, dated 2005)

Biological target: T1, human parathyroid cell Ca^2+ receptor (hPCaR) (Homo sapiens, UniProt P41180)
T1 construct: expressed in transfected cells
T1 sequence (P41180 20-1078): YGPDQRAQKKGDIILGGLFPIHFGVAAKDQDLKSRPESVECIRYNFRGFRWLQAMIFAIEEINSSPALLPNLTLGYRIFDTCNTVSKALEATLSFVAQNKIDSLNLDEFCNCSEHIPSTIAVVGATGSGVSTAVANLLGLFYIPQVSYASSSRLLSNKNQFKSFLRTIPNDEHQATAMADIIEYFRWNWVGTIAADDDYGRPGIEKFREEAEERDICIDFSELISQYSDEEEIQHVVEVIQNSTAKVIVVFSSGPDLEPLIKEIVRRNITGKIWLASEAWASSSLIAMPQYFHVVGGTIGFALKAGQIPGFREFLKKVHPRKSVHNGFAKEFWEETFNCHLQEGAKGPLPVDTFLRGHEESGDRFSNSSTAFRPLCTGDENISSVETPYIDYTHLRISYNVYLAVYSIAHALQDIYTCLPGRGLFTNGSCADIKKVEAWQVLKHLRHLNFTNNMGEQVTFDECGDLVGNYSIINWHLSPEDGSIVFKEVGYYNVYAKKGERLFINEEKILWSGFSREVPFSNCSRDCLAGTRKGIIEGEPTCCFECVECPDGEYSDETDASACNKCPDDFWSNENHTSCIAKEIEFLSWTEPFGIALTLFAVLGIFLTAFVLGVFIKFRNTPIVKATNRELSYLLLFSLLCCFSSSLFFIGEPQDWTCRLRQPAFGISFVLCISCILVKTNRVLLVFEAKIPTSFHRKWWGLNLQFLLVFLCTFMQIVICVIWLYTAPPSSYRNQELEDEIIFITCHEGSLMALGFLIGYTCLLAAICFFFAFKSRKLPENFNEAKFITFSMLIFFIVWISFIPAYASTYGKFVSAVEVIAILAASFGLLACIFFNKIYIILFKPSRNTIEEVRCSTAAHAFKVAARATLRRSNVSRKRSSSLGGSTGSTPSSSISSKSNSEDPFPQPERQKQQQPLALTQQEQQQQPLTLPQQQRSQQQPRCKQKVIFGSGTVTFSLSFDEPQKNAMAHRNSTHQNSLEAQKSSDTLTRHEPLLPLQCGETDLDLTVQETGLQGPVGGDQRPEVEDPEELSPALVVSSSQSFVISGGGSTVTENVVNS
Test: [Ca2+]i measurement with fluo-3 in HEK 293 4.0-7 cells stably transfected with hPCaR
Assay type: cell-based
Conditions: fluo-3 fluorescence (485/530 nm), effect on [Ca^2+]i
Method in brief: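 HEK 293 cells stably expressing human parathyroid Ca2+ receptor (clone 4.0-7), loaded with 2 μM fluo-3 AM for 30 min at 37 °C in parathyroid cell buffer (pH 7.45) with 1 mM CaCl2 and 0.5% BSA. After compound addition, intracellular Ca2+ followed by fluorescence at 485 nm excitation/530 nm emission.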

EC50, ≤ 10 µM:
COc1ccc([C@@H](C)NCc2cccc(-c3ccoc3)c2)cc1 [Example 223, (1R)-N-((3-(3-furanyl)phenyl)methyl)-1-(4-(methyloxy)phenyl)ethanamine]
Cc1ccc([C@@H](C)NCc2cccc(-c3ccoc3)c2)cc1 [Example 224, (1R)-N-((3-(3-furanyl)phenyl)methyl)-1-(4-methylphenyl)ethanamine]
C[C@@H](NCc1cccc(-c2ccoc2)c1)c1cccc2ccccc12 [Example 225, (1R)-N-((3-(3-furanyl)phenyl)methyl)-1-(1-naphthalenyl)ethanamine]
C[C@@H](NCc1cccc(-c2ccoc2)c1)c1ccccc1 [Example 226, (1R)-N-((3-(3-furanyl)phenyl)methyl)-1-phenylethanamine]
COc1ccc(CN[C@H](C)c2ccccc2)cc1-c1cnccn1 [Example 238, (1R)-N-((4-(methyloxy)-3-(2-pyrazinyl)phenyl)methyl)-1-phenylethanamine]
Cc1ccc([C@@H](C)NCc2cccc(-c3ncnc4c3ncn4C)c2)cc1 [Example 241, (1R)-1-(4-methylphenyl)-N-((3-(9-methyl-9H-purin-6-yl)phenyl)methyl)ethanamine]
CC(=O)Nc1ccc(-c2cccc(CN[C@H](C)c3ccccc3)c2)cn1 [Example 250, N-(5-(3-((((1R)-1-phenylethyl)amino)methyl)phenyl)-2-pyridinyl)acetamide]
C[C@@H](NCc1ccc(F)c(-c2ccc(F)cc2)c1)c1ccccc1 [Example 251, (1R)-N-((4′,6-difluoro-1,1′-biphenyl-3-yl)methyl)-1-phenylethanamine]
COc1ccccc1-c1cc(CN[C@H](C)c2ccccc2)ccc1OC [Example 253, (1R)-N-((2′,6-bis(methyloxy)-1,1′-biphenyl-3-yl)methyl)-1-phenylethanamine]
COc1ccc(CN[C@H](C)c2ccccc2)cc1-c1ccc2ocnc2c1 [Example 264, (1R)-N-((3-(1,3-benzoxazol-5-yl)-4-(methyloxy)phenyl)methyl)-1phenylethanamine]
C[C@@H](NCc1ccc(C(F)(F)F)c(-c2ccc(C(F)(F)F)cc2)c1)c1ccccc1 [Example 314, (1R)-N-((4′,6-bis(trifluoromethyl)-1,1′-biphenyl-3-yl)methyl)-1-phenylethanamine]
COc1ccc(-c2cc(CN[C@H](C)c3ccccc3)ccc2O)cc1 [Example 391, 4′-(methyloxy)-5-((((1R)-1-phenylethyl)amino)methyl)-1,1′-biphenyl-2-ol]
C[C@@H](NCc1ccc(Cl)c(-c2cccnc2)c1)c1ccccc1 [Example 434, (1R)-N-((4-chloro-3-(3-pyridinyl)phenyl)methyl)-1-phenylethanamine]
C[C@@H](NCc1ccc(Cl)c(-c2cccnc2)c1)c1cccc2ccccc12 [Example 435, (1R)-N-((4-chloro-3-(3-pyridinyl)phenyl)methyl)-1-(1-naphthalenyl)ethanamine]
COc1cccc(-c2cc(CN[C@H](C)c3ccccc3)ccc2OC)c1 [Example 449, (1R)-N-((3′,6-bis(methyloxy)-1,1′-biphenyl-3-yl)methyl)-1-phenylethanamine]
CC[C@@H](NCc1ccc(OC)c(-c2ccc(OC)cc2)c1)c1ccccc1 [Example 450, (1R)-N-((4′,6-bis(methyloxy)-1,1′-biphenyl-3-yl)methyl)-1-phenyl-1-propanamine]
Cc1ccc(CN[C@H](C)c2ccccc2)cc1-c1cccnc1 [Example 451, (1R)-N-((4-methyl-3-(3-pyridinyl)phenyl)methyl)-1-phenylethanamine]
